Earlier results, collected in Sander's compilation of Henry's law constants.
Where “and” joins values, the source holds several entries; their conditions need not be identical. Identical values can stand only once. One block for each compound: values may come before it.

Test: Henry solubility constant Hcp at 298.15 K (mol/(m3 Pa))
Settings: cited value
[1] = reference: Barcelo and Hennion (1997)
[2] = reference: Burkholder et al. (2015)
[3] = reference: Burkholder et al. (2019)
[4] = reference: Sander et al. (2006)
[5] = reference: Sander et al. (2011)
[6] = reference: Fogg and Sangster (2003)

Henry solubility constant Hcp (reference: Muir et al. (2004)): 4.4
Compound: COC(=O)c1c(Cl)c(Cl)c(C(=O)OC)c(Cl)c1Cl [dacthal]

Henry solubility constant Hcp (reference: Brockbank (2013)): 0.35
Compound: N#Cc1ccccc1 [benzenenitrile]

Henry solubility constant Hcp (reference: Brockbank (2013)): 0.0045
Compound: CC(C)OC(C)C [diisopropyl ether]

Henry solubility constant Hcp (reference: Brockbank (2013)): 5.6e-06
Compound: CCC(C)(C)CC [3,3-dimethylpentane]

Henry solubility constant Hcp (reference: Brockbank (2013)): 9.3e-09
Compound: FC(F)(F)C(F)(F)C(F)(F)C(F)(F)C(F)(F)C(F)(F)F [tetradecafluorohexane]

Henry solubility constant Hcp (reference: Brockbank (2013)): 0.0097
Compound: CCC(C)(C)OC [2-methoxy-2-methylbutane]

Henry solubility constant Hcp (reference: Brockbank (2013)): 0.022
Compound: CCCCOC(=O)CC [butyl propanoate]

Henry solubility constant Hcp (reference: Brockbank (2013)): 0.058
Compound: CCC(=O)OC [methyl propanoate]

Henry solubility constant Hcp (reference: Brockbank (2013)): 0.34
Compound: CCCCCCCCO [1-octanol]

Henry solubility constant Hcp (reference: Brockbank (2013)): 0.072
Compound: CCCCC(=O)CC [3-heptanone]

Henry solubility constant Hcp (reference: Brockbank (2013)): 0.82
Compound: CC(C)CCO [3-methyl-1-butanol]

Henry solubility constant Hcp (reference: Brockbank (2013)): 3e-09
Compound: FC(F)(F)C(F)(F)C(F)(F)C(F)(F)C(F)(F)C(F)(F)C(F)(F)F [hexadecafluoroheptane]

Henry solubility constant Hcp (reference: Brockbank (2013)): 0.012
Compound: CCCCC(C=O)CC (stereo not drawn) [2-ethylhexanal]

Henry solubility constant Hcp (reference: Brockbank (2013)): 0.37
Compound: CCCC(O)CC (stereo not drawn) [3-hexanol]

Henry solubility constant Hcp (reference: Brockbank (2013)): 0.079
Compound: CCCC(=O)CC [3-hexanone]

Henry solubility constant Hcp (reference: Brockbank (2013)): 0.019
Compound: c1ccc(Oc2ccccc2)cc1 [diphenyl ether]

Henry solubility constant Hcp (reference: Brockbank (2013)): 2.4e-05
Compound: C/C=C/CCCC [trans-2-heptene]

Henry solubility constant Hcp (reference: Deno and Berkheimer (1960)): 9.2e-05
Compound: C=CC [propene]

Henry solubility constant Hcp (reference: Brockbank (2013)): 0.061 | Henry solubility constant Hcp (reference: Pierotti et al. (1959)): 0.057
Compound: COCOC [dimethoxymethane]

Henry solubility constant Hcp (reference: MacBean (2012b)): 14000
Compound: O=C(O)C1(C(=O)Nc2ccc(Cl)cc2Cl)CC1 [cyclanilide]

Henry solubility constant Hcp (reference: Brockbank (2013)): 0.0002
Compound: C1=CCCC1 [cyclopentene]

Henry solubility constant Hcp (reference: Brockbank (2013)): 1.3
Compound: CC(=O)Oc1ccccc1 [phenyl ethanoate]

Henry solubility constant Hcp (reference: Brockbank (2013)): 0.017
Compound: CCCCCOC(=O)CCC [pentyl butanoate]

Henry solubility constant Hcp (reference: Brockbank (2013)): 0.76
Compound: CCC(C)CO (stereo not drawn) [2-methyl-1-butanol]

Henry solubility constant Hcp (reference: Clever (1979b)): 2.5e-05
Compound: [Kr] [krypton]

Henry solubility constant Hcp (reference: Brockbank (2013)): 0.0041
Compound: Cc1cccs1 [2-methylthiophene]

Henry solubility constant Hcp (reference: Brockbank (2013)): 0.089 | Henry solubility constant Hcp (reference: Cabani et al. (1981)): 0.13 | Henry solubility constant Hcp (reference: Howard (1993)): 0.11
Compound: CCC(=O)CC [3-pentanone]

The next lines start with the compound.

Compound: Nc1ccccc1 [aminobenzene]
Henry solubility constant Hcp (reference: Brockbank (2013)): 4.9

Compound: Clc1ccc(C(c2ccc(Cl)cc2)C(Cl)(Cl)Cl)cc1 [1,1,1-trichloro-2,2-bis-(4-chlorophenyl)-ethane]
Henry solubility constant Hcp [1]: 0.0042

Compound: [Br][Hg][Br] [mercury dibromide]
Henry solubility constant Hcp (reference: Kanefke (2008)): 960

Compound: ClC1C(Cl)C(Cl)C(Cl)C(Cl)C1Cl (stereo not drawn) [γ-1,2,3,4,5,6-hexachlorocyclohexane]
Henry solubility constant Hcp (reference: McCarty (1980)): 31 | Henry solubility constant Hcp (reference: Xiao et al. (2004)): 3.7 and 3.3

Compound: O=C=S [carbon oxide sulfide]
Henry solubility constant Hcp [2]: 0.0002 | Henry solubility constant Hcp [3]: 0.0002 | Henry solubility constant Hcp [4]: 0.0002 | Henry solubility constant Hcp [5]: 0.0002

Compound: CC(=O)CC(C)C [4-methyl-2-pentanone]
Henry solubility constant Hcp (reference: Brockbank (2013)): 0.069 | Henry solubility constant Hcp (reference: Howard (1990)): 0.11

Compound: CCc1cccc2ccccc12 [1-ethylnaphthalene]
Henry solubility constant Hcp (reference: Brockbank (2013)): 0.02 | Henry solubility constant Hcp (reference: Mackay et al. (1992b)): 0.026

Compound: Cc1cccc(O)c1C [1-hydroxy-2,3-dimethylbenzene]
Henry solubility constant Hcp (reference: Brockbank (2013)): 6.7

Compound: ClCCl [dichloromethane]
Henry solubility constant Hcp (reference: Brockbank (2013)): 0.0037 | Henry solubility constant Hcp [2]: 0.0039 | Henry solubility constant Hcp [3]: 0.0039 | Henry solubility constant Hcp (reference: Dilling (1977)): 0.0037 | Henry solubility constant Hcp (reference: Dilling et al. (1975)): 0.0037 | Henry solubility constant Hcp (reference: Goldstein (1982)): 0.0031 | Henry solubility constant Hcp (reference: Harrison et al. (1993)): 0.0042 and 0.0034 | Henry solubility constant Hcp [4]: 0.0036 | Henry solubility constant Hcp [5]: 0.0036

Compound: Brc1ccc(Br)cc1 [1,4-dibromobenzene]
Henry solubility constant Hcp (reference: Kuramochi et al. (2004)): 0.011

Compound: CCOP(=S)(OCC)SCSC(C)(C)C [terbufos]
Henry solubility constant Hcp [1]: 0.0099

Compound: CCSC [ethyl methyl sulfide]
Henry solubility constant Hcp [2]: 0.0042 | Henry solubility constant Hcp [3]: 0.0042

Compound: CCCCCCCCSC(=O)Oc1cc(Cl)nnc1-c1ccccc1 [pyridate]
Henry solubility constant Hcp [1]: 300

Compound: C#CCCCCC [1-heptyne]
Henry solubility constant Hcp (reference: Brockbank (2013)): 0.00018

Compound: C=CCC#N [3-butenenitrile]
Henry solubility constant Hcp (reference: Brockbank (2013)): 0.2

Compound: CCC(C)n1c(=O)[nH]c(C)c(Br)c1=O (stereo not drawn) [bromacil]
Henry solubility constant Hcp [1]: 5.2

Compound: CNC(=O)ON=C(SC)C(=O)N(C)C [oxamyl]
Henry solubility constant Hcp [1]: 38

Compound: OCC(Cl)Cl [2,2-dichloroethanol]
Henry solubility constant Hcp [2]: 0.37 | Henry solubility constant Hcp [3]: 0.37

Compound: ClC(Cl)C(Cl)Cl [1,1,2,2-tetrachloroethane]
Henry solubility constant Hcp (reference: Barr and Newsham (1987)): 0.018 | Henry solubility constant Hcp (reference: Brockbank (2013)): 0.024 | Henry solubility constant Hcp [2]: 0.023 | Henry solubility constant Hcp [3]: 0.023 | Henry solubility constant Hcp (reference: Goldstein (1982)): 0.023

Compound: N#CCc1ccccc1 [benzeneacetonitrile]
Henry solubility constant Hcp (reference: Brockbank (2013)): 1.1

Compound: CCc1cccc(C)c1N(C(=O)CCl)C(C)COC (stereo not drawn) [metolachlor]
Henry solubility constant Hcp [1]: 11 | Henry solubility constant Hcp [6]: 620 | Henry solubility constant Hcp (reference: Muir et al. (2004)): 750 and 720 | Henry solubility constant Hcp (reference: Rice et al. (1997b)): 1200

Compound: CC(C)O [2-propanol]
Henry solubility constant Hcp (reference: Brockbank (2013)): 1.2 | Henry solubility constant Hcp [2]: 1.2 | Henry solubility constant Hcp [3]: 1.2 | Henry solubility constant Hcp [6]: 1.2 | Henry solubility constant Hcp (reference: Hine and Weimar (1965)): 1.7 | Henry solubility constant Hcp [4]: 1.3 | Henry solubility constant Hcp [5]: 1.3

Compound: Nc1ccccc1[N+](=O)[O-] [2-nitrobenzenamine]
Henry solubility constant Hcp (reference: Brockbank (2013)): 71

Compound: Cc1ccc(O)cc1 [1-hydroxy-4-methylbenzene]
Henry solubility constant Hcp (reference: Brockbank (2013)): 13 | Henry solubility constant Hcp (reference: Gaffney and Senum (1984)): 9.9 | Henry solubility constant Hcp (reference: Howard (1989)): 10

Compound: CCCCS [1-butanethiol]
Henry solubility constant Hcp (reference: Brockbank (2013)): 0.0015

Compound: Cc1ccccc1C [1,2-dimethylbenzene]
Henry solubility constant Hcp (reference: Brockbank (2013)): 0.002 | Henry solubility constant Hcp [6]: 0.0024

Compound: O=C(Nc1ccccc1-c1ccc(Cl)cc1)c1cccnc1Cl [boscalid]
Henry solubility constant Hcp (reference: MacBean (2012b)): 19000

Compound: CCCCOCC [1-ethoxy-butane]
Henry solubility constant Hcp (reference: Brockbank (2013)): 0.0076

Compound: C#CC(C)(C)NC(=O)c1cc(Cl)cc(Cl)c1 [propyzamide]
Henry solubility constant Hcp [1]: 0.052

Compound: ClNCl [dichloramine]
Henry solubility constant Hcp [2]: 0.29 | Henry solubility constant Hcp [3]: 0.29 | Henry solubility constant Hcp [4]: 0.29 | Henry solubility constant Hcp [5]: 0.29

Compound: O=C(O)CBr [bromoethanoic acid]
Henry solubility constant Hcp [2]: 1500 | Henry solubility constant Hcp [3]: 1500 | Henry solubility constant Hcp [5]: 1500

Compound: CC1(C(=O)Nc2ccc(O)c(Cl)c2Cl)CCCCC1 [fenhexamid]
Henry solubility constant Hcp (reference: MacBean (2012b)): 200000

Compound: CCOP(=S)(OCC)SCCSCC [disulfoton]
Henry solubility constant Hcp [1]: 0.045 | Henry solubility constant Hcp (reference: Muir et al. (2004)): 11

Compound: C=CCl [chloroethene]
Henry solubility constant Hcp (reference: Brockbank (2013)): 0.00043 | Henry solubility constant Hcp [2]: 0.00038 | Henry solubility constant Hcp [3]: 0.00038

Compound: O=[N+]([O-])c1ccccc1 [nitrobenzene]
Henry solubility constant Hcp (reference: Brockbank (2013)): 0.47 | Henry solubility constant Hcp (reference: Goldstein (1982)): 0.47 | Henry solubility constant Hcp (reference: Mackay et al. (1995)): 0.75

Compound: CCC(C)O (stereo not drawn) [2-butanol]
Henry solubility constant Hcp (reference: Brockbank (2013)): 0.95 | Henry solubility constant Hcp [2]: 1.1 | Henry solubility constant Hcp [3]: 1.1 | Henry solubility constant Hcp [6]: 1 | Henry solubility constant Hcp [4]: 1.1 | Henry solubility constant Hcp [5]: 1.1
